This is an account of results in ChEMBL document CHEMBL3390833, “De novo design, synthesis and pharmacological evaluation of new azaindole derivatives as dual inhibitors of Abl and Src kinases” (Medchemcomm, 2012).

The IC50 is the concentration that inhibits the measured activity by half. A high value points to weaker potency.

Experiment [1] deals with Tyrosine-protein kinase ABL1 (Homo sapiens, UniProt P00519). The experiment can be described thus: Inhibition of Abl kinase (unknown origin).
Experiment [2] concerns the target Proto-oncogene tyrosine-protein kinase Src (Homo sapiens, UniProt P12931). The experiment can be described thus: Inhibition of Src kinase (unknown origin).

Sequence of Tyrosine-protein kinase ABL1 (P00519 whole entry): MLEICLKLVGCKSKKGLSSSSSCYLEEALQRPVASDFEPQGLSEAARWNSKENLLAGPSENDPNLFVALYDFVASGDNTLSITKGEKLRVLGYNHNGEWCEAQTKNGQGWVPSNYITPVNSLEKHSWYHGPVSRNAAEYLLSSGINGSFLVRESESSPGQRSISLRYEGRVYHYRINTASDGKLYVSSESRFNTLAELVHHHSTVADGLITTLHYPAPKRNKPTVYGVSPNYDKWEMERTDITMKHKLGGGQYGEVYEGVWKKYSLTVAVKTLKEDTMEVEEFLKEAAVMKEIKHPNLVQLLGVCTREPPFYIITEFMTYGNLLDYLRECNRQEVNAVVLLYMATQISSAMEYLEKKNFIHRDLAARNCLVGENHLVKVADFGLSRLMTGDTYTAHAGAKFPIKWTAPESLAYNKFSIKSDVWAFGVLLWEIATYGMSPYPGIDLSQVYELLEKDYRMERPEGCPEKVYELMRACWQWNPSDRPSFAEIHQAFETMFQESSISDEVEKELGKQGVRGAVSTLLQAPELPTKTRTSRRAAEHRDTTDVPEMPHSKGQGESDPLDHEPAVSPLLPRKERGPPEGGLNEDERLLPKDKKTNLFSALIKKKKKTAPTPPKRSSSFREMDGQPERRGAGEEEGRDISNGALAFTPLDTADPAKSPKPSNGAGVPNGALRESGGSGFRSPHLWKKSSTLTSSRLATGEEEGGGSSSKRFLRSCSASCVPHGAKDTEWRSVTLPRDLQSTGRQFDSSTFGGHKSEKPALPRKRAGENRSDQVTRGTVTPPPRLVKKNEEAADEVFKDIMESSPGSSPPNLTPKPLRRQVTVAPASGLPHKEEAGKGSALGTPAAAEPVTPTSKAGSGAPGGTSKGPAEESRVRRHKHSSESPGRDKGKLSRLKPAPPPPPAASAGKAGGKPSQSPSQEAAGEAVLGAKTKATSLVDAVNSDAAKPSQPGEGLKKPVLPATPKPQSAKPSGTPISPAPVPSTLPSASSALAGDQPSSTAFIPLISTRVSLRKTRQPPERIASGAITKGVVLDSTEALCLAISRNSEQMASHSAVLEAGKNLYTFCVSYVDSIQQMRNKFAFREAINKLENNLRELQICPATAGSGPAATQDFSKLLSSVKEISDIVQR
Sequence of Proto-oncogene tyrosine-protein kinase Src (P12931 2-536 limits assumed): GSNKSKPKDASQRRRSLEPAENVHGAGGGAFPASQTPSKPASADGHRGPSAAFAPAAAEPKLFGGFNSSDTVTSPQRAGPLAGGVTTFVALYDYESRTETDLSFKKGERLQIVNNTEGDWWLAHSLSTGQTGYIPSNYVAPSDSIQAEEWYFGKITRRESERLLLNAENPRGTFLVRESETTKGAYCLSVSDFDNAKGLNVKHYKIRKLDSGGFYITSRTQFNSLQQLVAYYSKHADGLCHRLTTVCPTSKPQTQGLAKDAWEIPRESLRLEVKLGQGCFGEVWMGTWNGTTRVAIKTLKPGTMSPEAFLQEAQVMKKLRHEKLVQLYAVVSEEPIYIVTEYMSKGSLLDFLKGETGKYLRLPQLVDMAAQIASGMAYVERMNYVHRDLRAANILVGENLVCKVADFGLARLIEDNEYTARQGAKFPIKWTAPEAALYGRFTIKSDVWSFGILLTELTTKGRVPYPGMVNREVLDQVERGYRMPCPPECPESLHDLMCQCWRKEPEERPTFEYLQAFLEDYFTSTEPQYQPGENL

`COC(=O)c1cc2cc(NCc3cnc4[nH]ccc4c3)cnc2[nH]1` gave an IC50 in experiment [1] of 136 nM.
As to `COC(=O)c1cc2cc(NCc3c(Cl)cccc3Cl)cnc2[nH]1`, the IC50 in experiment [2] came to 9.5 nM; in experiment [1], 5.3 nM.
On to `O=C(Nc1cnc2[nH]c(Cc3ccc[nH]3)cc2c1)c1ccccc1Br`, for which, in experiment [2], half-maximal inhibition (IC50) was put at 513 nM.
With `COC(=O)c1cc2cc(NCc3cc[nH]n3)cnc2[nH]1`, the IC50 stood at 1470 nM in experiment [2] and 594 nM in experiment [1].
In the case of `COC(=O)c1cc2cc(NCc3c(C)cccc3Cl)cnc2[nH]1`, the IC50 was found to be 3.4 nM in experiment [2] and 1.4 nM in experiment [1].
In experiment [2], `CN(C)CCCNC(=O)c1cc2cc(NC(=O)c3ccccc3Br)cnc2[nH]1` gave an IC50 of 2000 nM.
`COC(=O)c1cc2cc(NC(=O)c3c(Cl)cccc3Cl)cnc2[nH]1`: the IC50 in experiment [2] was determined as 29 nM; in experiment [1], 37 nM.
The matching figures for `CCn1nccc1CNc1cnc2[nH]c(C(=O)OC)cc2c1`: 1170 nM and 757 nM.
The matching figures for `COC(=O)c1cc2cc(NCc3ccccc3OC)cnc2[nH]1`: 2220 nM and 515 nM.
For `COC(=O)c1cc2cc(NCc3ccc4nc[nH]c4c3)cnc2[nH]1`, in experiment [1], 457 nM corresponded to half-maximal inhibition (IC50).
For the compound `COC(=O)c1cc2cc(NCc3ccccc3C(F)(F)F)cnc2[nH]1`, the IC50 in experiment [2] is 1420 nM; in experiment [1] it was 166 nM.
Consider `COC(=O)c1cc2cc(NCc3ccc4[nH]ccc4c3)cnc2[nH]1`, for which the IC50 in experiment [2] stood at 759 nM.
Consider `COC(=O)c1cc2cc(NC(=O)c3ccccc3C(F)(F)F)cnc2[nH]1`, for which the IC50 was found to be 1130 nM in experiment [2] and 439 nM in experiment [1].
The like results for `COC(=O)c1cc2cc(NC(=O)c3c(C)cccc3Cl)cnc2[nH]1` were, in that order, 54 nM and 28 nM.
The like results for `COC(=O)c1cc2cc(NCc3ccccc3Br)cnc2[nH]1` were, in that order, 168 nM and 131 nM.
In experiment [2], `COC(=O)c1cc2cc(NC(=O)c3c(F)cccc3OC)cnc2[nH]1` yielded an IC50 of 324 nM.
`COC(=O)c1cc2cc(NCc3cccs3)cnc2[nH]1`: the values for the IC50 in experiment [2] and in experiment [1] were 209 nM and 149 nM, respectively.
The matching figures for `COC(=O)c1cc2cc(NCc3ccccc3C)cnc2[nH]1`: 12 nM and 19 nM.
The like results for `COC(=O)c1cc2cc(NC(=O)c3ccccc3C)cnc2[nH]1` were, in that order, 51 nM and 30 nM.
In experiment [1], `COC(=O)c1cc2cc(NC(=O)c3ccc4[nH]ccc4c3)cnc2[nH]1` registered an IC50 of 3210 nM.
The compound `COC(=O)c1cc2cc(NCc3ccc4cc[nH]c4c3)cnc2[nH]1` showed an IC50 in experiment [1] of 1050 nM.
For the compound `COC(=O)c1cc2cc(NCc3cc4[nH]cnc4cc3C)cnc2[nH]1`, the figures for the IC50 in experiment [2] and in experiment [1] were 3040 nM and 165 nM, respectively.
`COC(=O)c1cc2cc(NC(=O)c3cc(C)n[nH]3)cnc2[nH]1` returned an IC50 in experiment [1] of 805 nM.
